Tests used:
[1] = Solvent extraction of aqueous crude chlorophthalic acid solution: distribution coefficient K and selectivity beta of chlorophthalides; type: physicochemical; set-up: key to K values: K = chlorophthalide mass fraction organic phase / aqueous phase; key to beta values: beta = (phthalide/acid wt fraction, organic) ÷ (same ratio, water)
Source text: In one embodiment the efficacy of a solvent extraction may be measured by the distribution coefficient, K, which is the mole fraction of specified solute in the organic solvent phase compared to the mole fraction of specified solute in the aqueous phase. In some particular embodiments an organic solvent is employed such that the value of the distribution coefficient, K, for phthalide in a product mixture comprising at least one phthalic acid is greater than 1. In other particular embodiments an organic solvent is employed such that the value of the distribution coefficient, K, for chlorophthalide in a product mixture comprising at least one chlorophthalic acid is greater than 1. In various particular embodiments an organic solvent is employed such that the value of the distribution coefficient, K, for chlorophthalide is in one embodiment in a range of between about 1.1 and about 5, and in another embodiment in a range of between about 1.1 and about 4. In a particular embodiment the distribution coefficient is measured for 4-chlorophthalide with water and various organic solvents such as toluene and xylene.
Another factor for measuring the efficacy of a solvent extraction is the selectivity factor, β, which compares the ratio of two components of interest in one phase to the ratio of the same two components in the other phase. In a particular embodiment the selectivity factor is measured for 4-chlorophthalide in relation to chlorophthalic acids in both water and organic solvent.
A 35 wt. % solution of crude chlorophthalic acid in water was prepared by adding appropriate amounts of 4- and 3-chlorophthalic anhydride (70/30 isomer ratio) along with a mixture of about 3 wt. % (based on crude chlorophthalic anhydride) of synthetic 4- and 7-chlorophthalide (produced by reduction of 3-chlorophthalic anhydride). […] A number of vials were prepared each containing 5 milliliters (ml.) of an aqueous phase comprising a certain concentration of crude chlorophthalic acid (5 wt. % to 35 wt. %, based on the weight of the entire aqueous phase and, optionally, acetic acid (0 wt. % to 36 wt. %, based on the weight of the entire aqueous phase). Each vial was then treated with 5 ml. of either toluene, o-dichlorobenzene (ODCB), or ortho-xylene. The vials were then shaken vigorously in a mechanical shaker for 50 minutes at a specified temperature (22° C., 42° C., or 60° C.). The phases were allowed to separate over several hours (actual phase separation occurred much quicker than this) and then each phase was sampled using a pipette. No stable emulsions were observed under the conditions which were examined. The organic phase was analyzed directly by GC (using biphenyl internal standard, following silylation of the product mixture), while for the aqueous phase, water was evaporated and solid residue was redissolved in organic solvent before GC analysis. The analytical data were used to calculate an equilibrium constant, K, which represented the ratio of chlorophthalides mass fraction in the organic phase to that in the aqueous phase. The analytical data were also used to calculate a selectivity constant, beta, which represented the quotient of [(wt. fraction of chlorophthalides in xylene)/(wt fraction of chlorophthalic acids in xylene)] divided by the quotient of [(wt fraction of chlorophthalides in water)/(wt fraction of chlorophthalic acids in water)]. The data in Table 1 show results of extractions performed at 22° C. with no acetic acid present.
The Procedure of Example 1 was repeated except that extractions were performed at 22 wt. % initial chlorophthalic acid concentration at 22° C. in the presence of different levels of acetic acid.
The procedure of Example 1 was repeated except that extractions were performed at different wt. % initial chlorophthalic acid concentration at 60° C. with no acetic acid present. […]

[2] = as above; type: physicochemical; set-up: key to K values: K = chlorophthalide mass fraction organic phase / aqueous phase; key to beta values: beta = (phthalide/acid wt fraction, organic) ÷ (same ratio, water); conditions: 22 wt.% chlorophthalic acid, 60° C.
[3] = ODCB/water, 9 wt.% acetic acid in initial aqueous phase, 22 wt.% chlorophthalic acid, 22° C.
[4] = ODCB/water, 10 wt.% acetic acid in initial aqueous phase, 22 wt.% chlorophthalic acid, 60° C.
[5] = ODCB/water, 12 wt.% chlorophthalic acid in aqueous phase, 22° C., no acetic acid
[6] = ODCB/water, 17 wt.% acetic acid in initial aqueous phase, 22 wt.% chlorophthalic acid, 22° C.
[7] = ODCB/water, 19 wt.% acetic acid in initial aqueous phase, 22 wt.% chlorophthalic acid, 60° C.
[8] = ODCB/water, 22 wt.% chlorophthalic acid in aqueous phase, 60° C., no acetic acid
[9] = ODCB/water, 23 wt.% chlorophthalic acid in aqueous phase, 22° C., no acetic acid
[10] = ODCB/water, 26 wt.% acetic acid in initial aqueous phase, 22 wt.% chlorophthalic acid, 22° C.
[11] = ODCB/water, 35 wt.% acetic acid in initial aqueous phase, 22 wt.% chlorophthalic acid, 22° C.
[12] = ODCB/water, 35 wt.% chlorophthalic acid in aqueous phase, 22° C., no acetic acid
[13] = ODCB/water, 35 wt.% chlorophthalic acid in aqueous phase, 60° C., no acetic acid
[14] = toluene/water, 12 wt.% chlorophthalic acid in aqueous phase, 22° C., no acetic acid
[15] = toluene/water, 17 wt.% acetic acid in initial aqueous phase, 22 wt.% chlorophthalic acid, 22° C.
[16] = toluene/water, 22 wt.% chlorophthalic acid in aqueous phase, 60° C., no acetic acid
[17] = toluene/water, 23 wt.% chlorophthalic acid in aqueous phase, 22° C., no acetic acid
[18] = toluene/water, 26 wt.% acetic acid in initial aqueous phase, 22 wt.% chlorophthalic acid, 22° C.
[19] = toluene/water, 35 wt.% chlorophthalic acid in aqueous phase, 22° C., no acetic acid
[20] = toluene/water, 35 wt.% chlorophthalic acid in aqueous phase, 60° C., no acetic acid
[21] = toluene/water, 36 wt.% acetic acid in initial aqueous phase, 22 wt.% chlorophthalic acid, 22° C.
[22] = xylene/water, 12 wt.% chlorophthalic acid in aqueous phase, 22° C., no acetic acid
[23] = xylene/water, 23 wt.% chlorophthalic acid in aqueous phase, 22° C., no acetic acid
[24] = xylene/water, 35 wt.% chlorophthalic acid in aqueous phase, 22° C., no acetic acid

4- and 7-chlorophthalide [chlorophthalides]
K values ([1]; ODCB/water, 5.5 wt.% chlorophthalic acid in aqueous phase, 22° C., no acetic acid): 1.1
beta values ([1]; ODCB/water, 5.5 wt.% chlorophthalic acid in aqueous phase, 22° C., no acetic acid, chlorophthalides vs chlorophthalic acids): 400
K values [1, 3]: 2.3
beta values [1, 3]: 200
K values [1, 4]: 3.1
beta values [1, 4]: 600
K values [1, 5]: 1.8
beta values [1, 5]: 800
K values [1, 6]: 2.2
beta values [1, 6]: 200
K values [1, 7]: 2.5
beta values [1, 7]: 300
K values [1, 8]: 2.8
beta values [1, 8]: 800
K values [1, 9]: 2.2
beta values [1, 9]: 300
K values [1, 10]: 1.9
beta values [1, 10]: 100
K values ([1]; ODCB/water, 29 wt.% acetic acid in initial aqueous phase, 22 wt.% chlorophthalic acid, 60° C.): 2.3
K values [1, 11]: 1.7
beta values [1, 11]: 100
K values [1, 12]: 1.4
beta values [1, 12]: 260
K values [1, 13]: 1.7
beta values [1, 13]: 800
beta values ([1]; ODCB/water, 37 wt.% acetic acid in initial aqueous phase, 22 wt.% chlorophthalic acid, 60° C.): 100
values for K ([1]; acetic acid 0-35 wt.% based on the weight of the water, 22 wt.% solids): 1.7-2.6
selectivity numbers for chlorophthalic acids and chlorophthalide ([1]; o-dichlorobenzene, chlorophthalic acids about 20 wt.%, chlorophthalide about 0.6%): ~500
selectivity numbers for chlorophthalic acids and chlorophthalide ([1]; toluene and xylene, chlorophthalic acids about 20 wt.%, chlorophthalide about 0.6%): 4000-5000
values of K ([1]; toluene, xylene and o-dichlorobenzene, chlorophthalic acids about 20 wt.%, chlorophthalide about 0.6%): 1.5-2.5
K values ([1]; toluene/water, 6 wt.% chlorophthalic acid in aqueous phase, 22° C., no acetic acid): 1.8
beta values ([1]; toluene/water, 6 wt.% chlorophthalic acid in aqueous phase, 22° C., no acetic acid, chlorophthalides vs chlorophthalic acids): 800
beta values ([1]; toluene/water, 10 wt.% acetic acid in initial aqueous phase, 22 wt.% chlorophthalic acid, 60° C.): 900
K values [1, 14]: 2.6
beta values [1, 14]: 2500
K values [1, 15]: 2.5
beta values [1, 15]: 400
K values ([1]; toluene/water, 19 wt.% acetic acid in initial aqueous phase, 22 wt.% chlorophthalic acid, 60° C.): 2.9
K values [1, 16]: 3.5
beta values [1, 16]: 1800
K values [1, 17]: 2.5
beta values [1, 17]: 3900
K values [1, 18]: 2.2
beta values [1, 18]: 150
K values ([1]; toluene/water, 29 wt.% acetic acid in initial aqueous phase, 22 wt.% chlorophthalic acid, 60° C.): 2.4
K values [1, 19]: 1.7
beta values [1, 19]: 3400
K values [1, 20]: 2.0
beta values [1, 20]: 1400
K values [1, 21]: 1.9
beta values [1, 21]: 100
beta values ([1]; toluene/water, 38 wt.% acetic acid in initial aqueous phase, 22 wt.% chlorophthalic acid, 60° C.): 50
selectivity numbers ([1]; toluene, 0 wt.% acetic acid, 22 wt.% solids): 4000
selectivity numbers ([1]; toluene, 18 wt.% acetic acid, 22 wt.% solids): about 400
K values [1, 22]: 2.5
beta values [1, 22]: 3500
K values [1, 23]: 1.8
beta values [1, 23]: 4700
K values [1, 24]: 1.3
beta values [1, 24]: 4200
beta values ([2]; ODCB/water, 29 wt.% acetic acid in initial aqueous phase): 150
K values ([2]; ODCB/water, 37 wt.% acetic acid in initial aqueous phase): 1.7
K values ([2]; toluene/water, 10 wt.% acetic acid in initial aqueous phase): 3.3
beta values ([2]; toluene/water, 19 wt.% acetic acid in initial aqueous phase): 300
beta values ([2]; toluene/water, 29 wt.% acetic acid in initial aqueous phase): 150
K values ([2]; toluene/water, 38 wt.% acetic acid in initial aqueous phase): 1.6

Source: patent US6670487B1, “Method for removing impurities from oxidation products” (General Electric Company, priority 2002, dated 2003)
